The source of these data is PubChem BioAssay (NCI).

Some test systems named below: HL-60(TB) leukemia; SF-295 CNS; IGROV1 ovarian; UACC-257 melanoma; MALME-3M melanoma; SK-MEL-5 melanoma; M14 melanoma; MDA-N; T-47D breast.
Common to all, as to assay: NCI tumour cell line growth inhibition, 48 h

Where “and” joins values, the source holds several entries; their conditions need not be identical. Equal entries are not always repeated.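 Five concentrations, 48 hours, 96-well plates. GI50 = concentration required for 50% inhibition of growth. At the TGI there is no net growth.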 Calls of active or inactive are those of the source. No stated cut-off is given here; in the data, active means GI50 below about 0.43 µM; inactive means the rest.

As for `CC1=NN(C(=O)Cc2ccccc2)C(=O)/C1=C\c1ccccc1O`, the TGI in the experiment with HL-60(TB) leukemia, with SF-295 CNS, in the experiment on IGROV1 ovarian, with UACC-257 melanoma, in the experiment with MALME-3M melanoma and in the experiment with SK-MEL-5 melanoma was above 100 µM each time. Moreover, the TGI with M14 melanoma is above 100 µM.

For `CC1=CC(=O)/C(=C/n2c(=S)[nH]c3cc(C)ccc32)C(=O)O1`, the TGI in the experiment with HL-60(TB) leukemia, in the experiment on SF-295 CNS, in the experiment on IGROV1 ovarian, in the experiment on UACC-257 melanoma, in the experiment with SK-MEL-5 melanoma and in the experiment on MDA-N was above 100 µM each time. The TGI in the experiment with M14 melanoma is above 100 µM.

As for `O=C1CCC2(c3ccc(Cl)cc3)Nc3ncncc3N12` (centres undefined), the TGI in the experiment on SF-295 CNS, in the experiment on IGROV1 ovarian, with UACC-257 melanoma, in the experiment with MALME-3M melanoma, in the experiment with MDA-N and with M14 melanoma was above 10 µM in each case.

Take `COc1cc2[nH]c(=O)c3cc(C)cc4c(Cl)nc(c1OC)c2c43`: the TGI with HL-60(TB) leukemia is above 100 µM; with SF-295 CNS, above 100 µM; in the experiment on IGROV1 ovarian it was above 100 µM; with UACC-257 melanoma, above 100 µM; with MALME-3M melanoma it was 62 µM; in the experiment on SK-MEL-5 melanoma it was above 100 µM. For the same compound, the TGI in the experiment on MDA-N and in the experiment with M14 melanoma was above 100 µM each time.

In the case of `Cc1c2oc3c(C)cc(F)c(C(=O)NC4C(=O)NC(C(C)C)C(=O)N5CCCC5C(=O)N(C)CC(=O)N(C)C(C(C)C)C(=O)OC4C)c3nc-2c(C(=O)NC2C(=O)NC(C(C)C)C(=O)N3CCCC3C(=O)N(C)CC(=O)N(C)C(C(C)C)C(=O)OC2C)c(N)c1=O` (centres undefined), the TGI in the experiment with HL-60(TB) leukemia is 0.161 µM; in the experiment with SF-295 CNS, 2.32 µM and 4.16 µM; with IGROV1 ovarian, above 100 µM; with SK-MEL-5 melanoma it was 0.223 µM; in the experiment with MDA-N it was 1.32 µM and 1.12 µM. In addition, the GI50 in the experiment with UACC-257 melanoma is 73.2 nM.

With `O=Cc1c(Br)[nH]c2ccccc12`, the TGI with HL-60(TB) leukemia is above 100 µM; with SF-295 CNS, above 100 µM; in the experiment with IGROV1 ovarian, above 100 µM; with UACC-257 melanoma, 77.7 µM; in the experiment with MALME-3M melanoma, above 100 µM; in the experiment with SK-MEL-5 melanoma it was above 100 µM.

Turning to `COc1cc2c(c(OC)c1OC)-c1ccc(SC)c(=O)cc1[C@@H](NC(=O)c1ccc([N+](=O)[O-])cc1)CC2`, the TGI is 0.302 µM with HL-60(TB) leukemia; 0.00721 µM in the experiment on SF-295 CNS; 25 µM and > 100 µM in the experiment with IGROV1 ovarian; 25 µM and > 100 µM with MALME-3M melanoma; 3.79 µM and 1.59 µM in the experiment with SK-MEL-5 melanoma.

As for `O=C(CSCC(=O)N/N=C\c1ccccc1F)N/N=C\c1ccccc1F`, the TGI in the experiment on HL-60(TB) leukemia, in the experiment with SF-295 CNS, in the experiment on IGROV1 ovarian, with UACC-257 melanoma, in the experiment with MALME-3M melanoma and in the experiment with SK-MEL-5 melanoma was above 100 µM each time. Also, the TGI in the experiment on M14 melanoma and with T-47D breast was above 100 µM each time.

On to `COc1cc(O)cc(O)c1C(=O)CC(Cl)(Cl)Cl`, for which the TGI in the experiment on HL-60(TB) leukemia, with SF-295 CNS, in the experiment on IGROV1 ovarian, in the experiment on UACC-257 melanoma, in the experiment on MALME-3M melanoma and with SK-MEL-5 melanoma was above 100 µM in each case. Moreover, the TGI with M14 melanoma and with T-47D breast was above 100 µM in each case.

With `C[N+](C)(C)CC(=O)N/N=C(/Cc1nc2ccc([N+](=O)[O-])cc2[nH]c1=O)C(=O)Nc1cc(C(F)(F)F)ccc1Cl`, the TGI in the experiment with HL-60(TB) leukemia, in the experiment on SF-295 CNS, with IGROV1 ovarian, in the experiment on UACC-257 melanoma, in the experiment with MALME-3M melanoma and in the experiment with SK-MEL-5 melanoma was above 100 µM each time. The compound also showed a TGI in the experiment on M14 melanoma above 100 µM.

In the case of `O=NN1C(c2ccccc2)CCCC1c1ccccc1` (centres undefined), the TGI was above 75.2 µM with HL-60(TB) leukemia; above 100 µM in the experiment with SF-295 CNS; above 100 µM in the experiment on IGROV1 ovarian; above 100 µM in the experiment on UACC-257 melanoma; above 100 µM in the experiment on MALME-3M melanoma; above 100 µM in the experiment on SK-MEL-5 melanoma.

In the case of `S=C(N/N=C(\C(=N/NC(=S)N1CCCCC1)c1ccccn1)c1ccccn1)N1CCCCC1`, the TGI was 19.8 µM in the experiment on HL-60(TB) leukemia; above 100 µM in the experiment on SF-295 CNS; above 100 µM in the experiment on IGROV1 ovarian; above 100 µM with UACC-257 melanoma; above 100 µM with MALME-3M melanoma; above 100 µM in the experiment on SK-MEL-5 melanoma. Besides, the TGI in the experiment on MDA-N is above 100 µM; in the experiment with M14 melanoma, 50.3 µM.

As for `O=c1[nH]c(=O)n(COCc2ccccc2)c2ccccc12`, the TGI in the experiment on HL-60(TB) leukemia, with SF-295 CNS, in the experiment on IGROV1 ovarian, in the experiment with UACC-257 melanoma, in the experiment with SK-MEL-5 melanoma and in the experiment with MDA-N was above 100 µM throughout. In the experiment with M14 melanoma, this compound returned a TGI above 100 µM.

As for `CCOC1NC(/N=C/c2ccc(OC)cc2)=C(C#N)C1C#N` (centres undefined), the TGI with HL-60(TB) leukemia, in the experiment with SF-295 CNS, in the experiment with IGROV1 ovarian, with UACC-257 melanoma, with MALME-3M melanoma and in the experiment with SK-MEL-5 melanoma was above 100 µM throughout. Besides, the TGI with MDA-N and with M14 melanoma was above 100 µM in each case.

With `O=C(c1ccccc1O)c1cc(-c2ncc3c(=O)c4ccccc4oc3n2)c(-c2ccccc2O)[nH]c1=O`, the TGI in the experiment on HL-60(TB) leukemia was 53.2 µM; in the experiment on SF-295 CNS, 22.7 µM; in the experiment with IGROV1 ovarian, above 70.1 µM; in the experiment on UACC-257 melanoma it was 47.1 µM; in the experiment on MALME-3M melanoma, 74.4 µM; with SK-MEL-5 melanoma, 25.8 µM.

Consider `COc1ccc(CCCN2c3ccccc3Sc3ccccc32)cc1`, for which the TGI with HL-60(TB) leukemia, in the experiment with SF-295 CNS, in the experiment on IGROV1 ovarian, in the experiment with UACC-257 melanoma, in the experiment with MALME-3M melanoma and in the experiment with SK-MEL-5 melanoma was above 100 µM in each case. The compound also returned a TGI in the experiment with M14 melanoma above 100 µM.

With `Cc1ccc(C#CS(=O)(=O)C(F)(F)F)cc1`, the TGI with HL-60(TB) leukemia is above 31.6 µM; in the experiment on SF-295 CNS, above 31.6 µM; in the experiment on IGROV1 ovarian, above 100 µM; in the experiment on UACC-257 melanoma, above 100 µM; in the experiment with MALME-3M melanoma, above 100 µM; in the experiment on SK-MEL-5 melanoma, above 100 µM.

Turning to `COc1ccc(C2=C(Cl)c3cc(OC)c(OC)cc3C2)cc1OC`, the TGI in the experiment on HL-60(TB) leukemia, in the experiment with SF-295 CNS, in the experiment on IGROV1 ovarian, in the experiment on UACC-257 melanoma, in the experiment on MALME-3M melanoma and with SK-MEL-5 melanoma was above 100 µM in each case. The same compound registered a TGI in the experiment on M14 melanoma above 100 µM.

For `CC(C)C1=C(Cc2ccccc2)C(=O)O/C1=C\c1ccc(O)c(Cl)c1`, the TGI with HL-60(TB) leukemia was 37.7 µM; in the experiment on SF-295 CNS, 29.5 µM; in the experiment on IGROV1 ovarian it was 30.5 µM; in the experiment with UACC-257 melanoma it was 32.8 µM; with MALME-3M melanoma, 30.6 µM; with SK-MEL-5 melanoma, 31.2 µM. Also, the TGI with MDA-N is 30.1 µM; in the experiment on M14 melanoma it was 31.3 µM.

With `COc1cc(/C(=C2/O[C@@H]([C@H]3COC(C)(C)O3)[C@H]3OC(C)(C)O[C@@H]23)c2ccc3c(c2)OCO3)cc(OC)c1OC`, the GI50 with HL-60(TB) leukemia was above 0.025 mM; in the experiment with SF-295 CNS, above 25 µM; in the experiment on IGROV1 ovarian it was above 25 µM; in the experiment with UACC-257 melanoma, above 25000 nM; in the experiment on MALME-3M melanoma, above 25 µM; in the experiment with SK-MEL-5 melanoma, 13 µM. In addition, the GI50 in the experiment with T-47D breast was 14.5 µM. In addition, the TGI in the experiment on HL-60(TB) leukemia, in the experiment on SF-295 CNS, in the experiment with IGROV1 ovarian, with UACC-257 melanoma, in the experiment on MALME-3M melanoma and in the experiment on SK-MEL-5 melanoma was above 25 µM in each case. Further, the TGI with T-47D breast was above 25 µM.

On to `CC1CCOc2ccc(cc2)C=Nc2ccc(cc2)-c2ccc(cc2)N=Cc2ccc(cc2)OCC1` (centres undefined), for which the TGI with HL-60(TB) leukemia, in the experiment on SF-295 CNS, in the experiment on IGROV1 ovarian, in the experiment with UACC-257 melanoma, in the experiment with SK-MEL-5 melanoma and in the experiment with MDA-N was above 100 µM each time. Further, the TGI in the experiment with M14 melanoma is above 100 µM.

With `N#Cc1ccc2[nH]c3c(c2c1)CC(=O)Nc1ccccc1-3`, the TGI in the experiment with HL-60(TB) leukemia, in the experiment on SF-295 CNS, in the experiment with IGROV1 ovarian, in the experiment with UACC-257 melanoma, in the experiment on SK-MEL-5 melanoma and in the experiment with M14 melanoma was above 100 µM throughout. Also, the TGI in the experiment with T-47D breast is above 100 µM.

In the case of `COc1ccc([C@H]2c3cc4c(cc3OC(O)(CO)[C@H]2C(=O)O)OCO4)c(OC)c1` (some centres undefined) (tested in a mixture with another compound), the TGI with HL-60(TB) leukemia, in the experiment on SF-295 CNS, with IGROV1 ovarian, with UACC-257 melanoma, in the experiment on MALME-3M melanoma and in the experiment with SK-MEL-5 melanoma was above 100 µM in each case. This compound came in with a TGI in the experiment on M14 melanoma above 100 µM.

Regarding `O=P(O)(O)CN1CCNCCN(CP(=O)(O)O)CCN(CP(=O)(O)O)CCNCC1`, in the experiment with HL-60(TB) leukemia, the GI50 is 48.9 mM. For the same compound, the TGI is 55.8 µM with HL-60(TB) leukemia and 44.1 µM in the experiment on MALME-3M melanoma. Further, the result in the experiment with SF-295 CNS, in the experiment on UACC-257 melanoma, in the experiment with MALME-3M melanoma and with M14 melanoma was inactive.

As for `COc1cc2c(c(OC)c1OC)-c1ccc(SC)c(=O)cc1[C@@H](NCc1cccc([N+](=O)[O-])c1)CC2`, the TGI with HL-60(TB) leukemia was above 100 µM; with SF-295 CNS, above 100 µM; in the experiment with IGROV1 ovarian, above 100 µM; in the experiment with UACC-257 melanoma it was above 100 µM; in the experiment with MALME-3M melanoma it was above 100 µM; in the experiment on M14 melanoma, 13.1 µM.
